One data set has as its system UPEC strain CFT073. As to the kind of experiment: In vivo ascending UTI assay (prophylaxis). Conditions: gentamicin 10 mg/kg IP 30 min prior to inoculation. Set-up: species or system Escherichia coli in C3H/HeN mice. As for the experimental part: Female mice were injected subcutaneously in the flank with 2.5 mg of MPA (150 mg/mL, diluted in sterile saline) 7 days prior to inoculation ([60]). Mice were dosed vaginally with 30 µL of sterile saline lavage fluid immediately prior to inoculation. The fluid was collected, placed on a slide, heat fixed, Gram stained, and assessed to determine the estrous cycle stage of each mouse as previously described ([61]).
Six-week-old female C3H/HeN mice were inoculated with UPEC as previously described ([28]). Briefly, UPEC strain CFT073 (ATCC designation: BAA-2503) was streaked on LB agar from a frozen glycerol stock and grown overnight at 37°C. Following overnight incubation, three to five colonies were picked and subcultured into 10 mL of sterile LB, and the culture was incubated statically overnight at 37°C. The culture was diluted 1:1,000 (25 µL of culture into 25 mL of sterile LB) and incubated statically for 24 h at 37°C to promote the growth of bacteria with type-1 pili expression. The resulting 25 mL inoculum was centrifuged at 4,200 × g for 20 min at 4°C. The supernatant was removed, and the cell pellet was resuspended in 10 mL of sterile PBS. The OD600 was adjusted to 1.0 by the addition of PBS to give a cell density of approximately 4 × 10^7 to 1 × 10^8 CFUs per 50 µL, the volume of the inoculum. Cell counts were validated by plating a dilution of the inoculum solution and enumerating following overnight incubation.
Urinary catheters were assembled by threading 30G needles with 0.28 mm inner diameter polyethylene tubing to create a soft tip. Catheter tips were dipped in lubricant immediately before inoculation. During catheterization, urine was aspirated from the bladder prior to inoculation with 50 µL of UPEC inoculum, prepared as described above. Mice were housed with their drug-dosed cohort and dosed intraperitoneally according to each experiment’s dosing regimen as shown in the figures. Dosing regimen for BAP trial 1 (Fig. 7b)consisted of IP administration of BAP (300 mg/kg) 30 min before inoculation; dosing regimen for BAP trial 2 (Fig. 7c) consisted of IP administration of BAP (600 mg/kg) 30 min before inoculation followed with IP doses of BAP (300 mg/kg) at 1 and 3 hpi; dosing regimen for BAP trial 3 and the pro-hpAP trial (Fig. 7d) consisted of IP administration of BAP (600 mg/kg) or pro-hpAP (60 mg/kg) 30 min before inoculation followed with IP doses of BAP (300 mg/kg) or pro-hpAP (30 mg/kg) at 1, 3, and 24 hpi; dosing regimen 4 (Fig. S3) consisted of IP administration of BAP (600 mg/kg) 30 min before inoculation followed with IP doses of BAP (300 mg/kg) at 1, 3, 6, 10, 22, 26, and 30 hpi. Gentamicin diluted in sterile PBS was used as a positive control and was administered to mice at 10 mg/kg IP 30 min prior to inoculation in all experiments.
After 48 h, mice were anesthetized by isoflurane inhalation and sacrificed by cervical dislocation. Bladders were harvested, added to 1 mL sterile PBS, and homogenized with a hand-held homogenizer in a biosafety cabinet. Tissue homogenates were serially-diluted (five 10-fold dilutions), and 100 µL of each dilution was plated onto LB plates and enumerated after a 24 h incubation at 37°C, yielding an effective detection range of 1 × 10^2–150 × 10^8 CFU/mL. In a few cases, bacterial counts fell below the lower limit of detection or above the upper limit of detection and are reported as 0 CFU/mL or conservatively 200 × 10^8 CFU/mL, respectively.

The nature of data set [1]: In vivo PK studies in CD-1 mice. Conditions: for AUC: pro-hpAP 30 mg/kg IP; for Cmax / AUC(0-t): ip, 30 mg/kg; for AUC(0-t): read-out: AUC0-t. The procedure: For pharmacokinetic analysis, both male (n = 2) and female (n = 2) CD1 mice were dosed with either BAP or pro-hpAP by intraperitoneal (IP) route or administration (100 mg/kg) and (30 mg/kg), respectively. Blood and tissue samples were collected at predetermined time points (0–6 h post-dose). Plasma was generated from blood by low-speed centrifugation (3,000 × g), and all samples were stored at −80°C until bioanalysis.
Non-compartmental-analysis module in WinNonlin was used to assess blood pharmacokinetic parameters including max concentrations (Cmax), time to Cmax (Tmax), area under the curve (AUC), area extrapolated to infinity (AUC0–∞), and terminal half-life (t1/2). In addition, the tissue penetration index was measured as the ratio of AUCtissue to AUCplasma.
To quantify BAP and pro-hpAP, methanol containing 0.5 µM losartan as an internal standard was added 5 µL/µL plasma or 5 µL/mg tissue in microcentrifuge tubes. Tissue was further homogenized using a Spex Geno/Grinder with stainless steel beads for 3 min at 1,500 RPM. Homogenates from untreated animals were spiked with the analytes from 100 to 0.01 nmol/g tissue by serial dilution to generate a standard curve. Plasma and tissue homogenates were then vortexed and centrifuged (16,000 × g for 5 min at 4°C) to precipitate proteins. Supernatants were transferred to a 96 well plate and 2 µL was injected on a Accela 1250 LC coupled to a Vantage triple quadrupole mass spectrometer (Thermo Fisher Scientific Inc., Waltham MA). Samples were separated on an Agilent EclipsePlus C18 RRHD (1.8 µm) 2.1 × 100 mm column with mobile phases consisting of water +0.1% formic acid (A), and acetonitrile + 0.1% formic acid (B). […] Samples were introduced to the source through heated ion spray with the capillary temperature setting at 350°C, spray voltage of 4 kV and S-Lens RF of 51. Nitrogen was used as the sheath and auxiliary gas with the settings of 50 and 1 arbitrary units, respectively. For BAP, the instrument was operated in negative ion mode scanning for transitions of 179.1 > 63.1, 79.1 (BAP) and 420.9 > 179.1, 127.0 (losartan) which were acquired with collision energies setting of 17; 55 and 25; 41 CE, respectively. For pro-hpAP, the instrument was operated in positive ion mode scanning for transitions of 346.2 to 86.1 and 143.2 (pro-hpAP) and 422.9 to 207.1 and 180.1 (losartan) which were acquired with collision energies setting of 29; 17 and 37; 22 CE, respectively. Peaks were quantified with Xcalibur software.

Where [2] appears, read: both sexes, CD1, mouse, in vivo, Bladder, single 30 mg/kg IP dose of pro-hpAP, analyte = labelled substance.
Setting [3] is: both sexes, CD1, mouse, in vivo, Brain, single 30 mg/kg IP dose of pro-hpAP, analyte = labelled substance.
Where [4] appears, read: both sexes, CD1, mouse, in vivo, Kidney, single 30 mg/kg IP dose of pro-hpAP, analyte = labelled substance.

Like-named read-outs stand apart in the source and are kept apart here.

What is called Cmax is the maximum level reached in the sampled fluid or tissue. By Tmax is commonly meant the time from dosing to the highest level.

For `CNC(C)C1CCC(N)C(OC2C(N)CC(N)C(OC3OCC(C)(O)C(NC)C3O)C2O)O1` (centres unmarked) [gentamicin, reference compound], the “mice with bacterial burden below the limit of detection (LOD)” value in the data set with UPEC strain CFT073 is listed as 5 of 8.

For the compound `C#CCCOP(=O)(O)C(C)=O` [hpAP, homopropargyl acetylphosphonate], the AUC in data set [1] (bladder, analyte = labelled substance (pro-hpAP or released hpAP)) is 366 ± 31 nmol·h/g; in data set [1] (both sexes, CD1, mouse, in vivo, plasma, analyte = labelled substance, read-out: AUC), 38.8 ± 2.7 µM·h; in data set [1] (brain, analyte = labelled substance), 1.87 ± 0.21 nmol·h/g; in data set [1] (kidney, analyte = labelled substance), 16.3 ± 1.4 nmol·h/g. Besides, the highest concentration (Cmax) in data set [1] (setting [2]) stood at 586 ± 78 µM; in data set [1] (setting [3]), 2.18 ± 0.16 µM; in data set [1] (setting [4]) it was 50.2 ± 7.7 µM; in data set [1] (both sexes, CD1, mouse, in vivo, Plasma, single 30 mg/kg IP dose of pro-hpAP, analyte = labelled substance (pro-hpAP or released hpAP)) it was 110 ± 11 µM. Besides, the AUC(0-t) in data set [1] (setting [2]) was 366 ± 31 µM·h; in data set [1] (setting [3]) it was 1.87 ± 0.21 µM·h; in data set [1] (setting [4]), 16.3 ± 1.4 µM·h; in data set [1] (both sexes, CD1, mouse, in vivo, Plasma, single 30 mg/kg IP dose of pro-hpAP, analyte = labelled substance), 38.8 ± 2.7 µM·h. The time to peak (Tmax) in data set [1] (both sexes, CD1, mouse, in vivo, Kidney, single 30 mg/kg IP dose of pro-hpAP, analyte = labelled substance, read-out: Tmax) is 15 min.

The record behind these values is PMC10986598, “Investigating inhibitors of 1-deoxy-D-xylulose 5-phosphate synthase in a mouse model of UTI” (Microbiology Spectrum, 2024).
